Here are results for ten compounds from patent US12643871B2, “Aryl formamide compound containing chiral sulfur oxide or salt thereof, preparation method, herbicidal composition and use thereof” (Qingdao Kingagroot Chemical Compound Co., Ltd., priority 2019, dated 2026).

Format in all cases: in vivo
The test system of one series is Abutilon theophrasti. The experiment in a line: Weeding effect in post-emergence stage. The following applies: 250 g/ha; 2 leaf stage; 15 days after application; fresh weight control rate. An outline of the steps: (§1)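 Two-leaf-stage pot plants, spray-tower application at 500/250/125/60/30/15 g/ha with methyl oleate EC synergist; fresh weight control level (0–5) read at 15 days post-treatment, three replicates averaged.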

The test system of another series is Amaranthus retroflexus. As to the kind of experiment: Weeding effect in post-emergence stage. The conditions noted are these: 250 g/ha; 2 leaf stage; 15 days after application; fresh weight control rate. In a few lines: as §1
The subject of the next series is Digitaria sanguinalis. As to the kind of experiment: Weeding effect in post-emergence stage. The following applies: 250 g/ha; 2 leaf stage; 15 days after application; fresh weight control rate. An outline of the steps:
as §1

Another series has as its system Echinochloa crusgali. The experiment in a line: Weeding effect in post-emergence stage. The following applies: 250 g/ha; 2 leaf stage; 15 days after application; fresh weight control rate. An outline of the steps:
as §1

The test system of another series is Setaria viridis. As to the kind of experiment: Weeding effect in post-emergence stage. The conditions noted are these: 250 g/ha; 2 leaf stage; 15 days after application; fresh weight control rate. An outline of the steps:
as §1

In series [1] the test system is key weeds such as Digitaria sanguinalis, Leptochloa chinensis. The experiment in a line: Comparison experiment (post-emergence, Tables 4-7), herbicidal activity on weeds not listed separately. The conditions noted are these: for activity to key weeds such as Digitaria sanguinalis, Leptochloa chinensis compared with the corresponding racemate or S configuration: dose of 125, 60, 30, 15 g/ha. An outline of the steps:
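Compounds are applied post-emergence by spray tower to plants at the 2 leaf stage, at rates from 15 to 500 g/ha with a methyl oleate synergist. Control is expressed on fresh weight, counted after 15 days in the greenhouse and averaged across three repetitions.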

Another series relates to rice and other crops. The experiment in a line: Comparison experiment (post-emergence, Tables 4-7), crop safety. The following applies: dose of 125, 60, 30, 15 g/ha. The source says:
The above growth control rates are fresh weight control rates.
Experiment on weeding effect in post-emergence stage: monocotyledonous and dicotyledonous weed seeds (Descurainia sophia, Capsella bursa-pastoris, Galium aparine, Stellaria media, Lithospermum arvense, Rorippa indica, Alopecurus aequalis, Beckmannia syzigachne, Sclerochloa dura, Phleum paniculatum, Bromus japonicus, Aegilops tauschii, Phalaris arundinacea, Amaranthus retroflexus, Chenopodiaceae, Commelina communis, Sonchus arvensis, convolvulus arvensis, Cirsium setosum, Solanum nigrum, Acalypha australis, Digitaria sanguinalis, Echinochloa crusgalli, Setaria viridis, Setaria glauca, Leptochloa chinensis, Monochoria vaginalis, Sagittaria trifolia, Scirpus juncoides, Cyperus rotundus, Cyperus iria, Cyperus difformis, Fimbristylis, Portulaca oleracea, Xanthium sibiricum, Pharbitis nil) and major crop seeds (wheat, corn, rice, soybean, cotton, oilseed rape, millet, sorghum, potato, sesame, ricinus) were placed in plastic pots filled with soil, then covered with 0.5-2 cm of soil, allowed to grow in a good greenhouse environment. After 2 weeks of sowing, the test plants were treated in the 2 leaf stage. The tested compounds of the present invention were respectively dissolved in acetone, then added with Tween 80 and 1.5 liter/ha of emulsifiable concentrate of methyl oleate as synergist, diluted with a certain amount of water to obtain a solution with a certain concentration, and sprayed with a spray tower onto the plants. After the application, the plants were cultured for 15 days in the greenhouse, and then the experimental results of the weeding were counted. The doses of the used compounds were 500, 250, 125, 60, 30, 15 g/ha, and the averages were obtained by repeating for three times.
If there is no clear marker, the post-seedling test conditions are the same as above, and the experimental results are shown in Tables 4-7.

On to `CC[S@@+]([O-])c1c(C(F)(F)F)ccc(C(=O)Nc2nnc(C)o2)c1F` [Compound 2], for which, in the series on Abutilon theophrasti, the “weeding effect in post-emergence stage, activity level (growth control rate), Abutilon theophrasti” value (“weeding effect … Abutilon theophrasti” below) is given as 5 (Level 5: growth control rate is above 85%). In addition, the “weeding effect in post-emergence stage, activity level (growth control rate), Amaranthus retroflexus” value (shortened to “weeding effect … Amaranthus retroflexus”) in the series on Amaranthus retroflexus is given as 5 (Level 5: growth control rate is above 85%). Further, in the series on Digitaria sanguinalis, the “weeding effect in post-emergence stage, activity level (growth control rate), Digitaria sanguinalis” value (“weeding effect … Digitaria sanguinalis” for short) is 4 (Level 4: growth control rate is greater than or equal to 60% and less than 85%). Moreover, in the series on Echinochloa crusgali, the “weeding effect in post-emergence stage, activity level (growth control rate), Echinochloa crusgali” value (“weeding effect … Echinochloa crusgali” for short) is 5 (Level 5: growth control rate is above 85%). Moreover, in the series on Setaria viridis, the “weeding effect in post-emergence stage, activity level (growth control rate), Setaria viridis” value (from here on “weeding effect … Setaria viridis”) is 4 (Level 4: growth control rate is greater than or equal to 60% and less than 85%). The “activity to key weeds such as Digitaria sanguinalis, Leptochloa chinensis compared with the corresponding racemate or S configuration” value in series [1] is “better activity”. In the series with rice and other crops, the “safety to rice and other crops compared with the corresponding racemate or S configuration” value is listed as “higher safety”.
Take `CCCCC[S@@+]([O-])c1c(C(F)(F)F)ccc(C(=O)Nc2nnc(C)o2)c1F` [Compound 8]: in the series on Abutilon theophrasti, the “weeding effect … Abutilon theophrasti” value was 5 (Level 5: growth control rate is above 85%). Besides, the “weeding effect … Amaranthus retroflexus” value in the series on Amaranthus retroflexus is on record as 5 (Level 5: growth control rate is above 85%). In addition, in the series with Digitaria sanguinalis, the “weeding effect … Digitaria sanguinalis” value is 4 (Level 4: growth control rate is greater than or equal to 60% and less than 85%). In the series on Echinochloa crusgali, the “weeding effect … Echinochloa crusgali” value is on record as 5 (Level 5: growth control rate is above 85%). Also, in the series with Setaria viridis, the “weeding effect … Setaria viridis” value was 4 (Level 4: growth control rate is greater than or equal to 60% and less than 85%). Moreover, in series [1], the “activity to key weeds such as Digitaria sanguinalis, Leptochloa chinensis compared with the corresponding racemate or S configuration” value is “better activity”. For the same compound, the “safety to rice and other crops compared with the corresponding racemate or S configuration” value in the series with rice and other crops was “higher safety”.
As for `Cc1nnc(NC(=O)c2ccc(C(F)(F)F)c([S@+]([O-])CCC3CC3)c2F)o1` [Compound 17], in the series on Abutilon theophrasti, the “weeding effect … Abutilon theophrasti” value was 5 (Level 5: growth control rate is above 85%). For the same compound, the “weeding effect … Amaranthus retroflexus” value with Amaranthus retroflexus is 5 (Level 5: growth control rate is above 85%). Moreover, the “weeding effect … Digitaria sanguinalis” value in the series with Digitaria sanguinalis is listed as 5 (Level 5: growth control rate is above 85%). Also, in the series on Echinochloa crusgali, the “weeding effect … Echinochloa crusgali” value was 5 (Level 5: growth control rate is above 85%). Moreover, the “weeding effect … Setaria viridis” value in the series with Setaria viridis was 5 (Level 5: growth control rate is above 85%). For the same compound, the “activity to key weeds such as Digitaria sanguinalis, Leptochloa chinensis compared with the corresponding racemate or S configuration” value in series [1] is reported as “better activity”. In addition, in the series on rice and other crops, the “safety to rice and other crops compared with the corresponding racemate or S configuration” value is on record as “higher safety”.
Turning to `C=CCC[S@@+]([O-])c1c(C(F)(F)F)ccc(C(=O)Nc2nnc(C)o2)c1F` [Compound 20], the “weeding effect … Abutilon theophrasti” value in the series on Abutilon theophrasti is listed as 5 (Level 5: growth control rate is above 85%). For the same compound, the “weeding effect … Amaranthus retroflexus” value in the series with Amaranthus retroflexus was 5 (Level 5: growth control rate is above 85%). Also, the “weeding effect … Digitaria sanguinalis” value with Digitaria sanguinalis is 5 (Level 5: growth control rate is above 85%). Besides, the “weeding effect … Echinochloa crusgali” value with Echinochloa crusgali is listed as 5 (Level 5: growth control rate is above 85%). Moreover, the “weeding effect … Setaria viridis” value in the series on Setaria viridis is 5 (Level 5: growth control rate is above 85%). For the same compound, in series [1], the “activity to key weeds such as Digitaria sanguinalis, Leptochloa chinensis compared with the corresponding racemate or S configuration” value was “better activity”. Also, the “safety to rice and other crops compared with the corresponding racemate or S configuration” value with rice and other crops is reported as “higher safety”.
As for `Cc1nnc(NC(=O)c2ccc(C(F)(F)F)c([S@+]([O-])CC=C(Cl)Cl)c2F)o1` [Compound 40], in the series with Abutilon theophrasti, the “weeding effect … Abutilon theophrasti” value is recorded as 5 (Level 5: growth control rate is above 85%). The “weeding effect … Amaranthus retroflexus” value in the series on Amaranthus retroflexus is recorded as 5 (Level 5: growth control rate is above 85%). Moreover, the “weeding effect … Digitaria sanguinalis” value in the series with Digitaria sanguinalis is given as 5 (Level 5: growth control rate is above 85%). Besides, the “weeding effect … Echinochloa crusgali” value in the series with Echinochloa crusgali is 5 (Level 5: growth control rate is above 85%). Moreover, the “weeding effect … Setaria viridis” value in the series on Setaria viridis is recorded as 5 (Level 5: growth control rate is above 85%). For the same compound, the “activity to key weeds such as Digitaria sanguinalis, Leptochloa chinensis compared with the corresponding racemate or S configuration” value in series [1] was “better activity”. In addition, the “safety to rice and other crops compared with the corresponding racemate or S configuration” value in the series on rice and other crops is given as “higher safety”.
In the case of `Cc1nnc(NC(=O)c2ccc(C(F)(F)F)c([S@+]([O-])CCC#N)c2F)o1` [Compound 52], in the series on Abutilon theophrasti, the “weeding effect … Abutilon theophrasti” value is on record as 5 (Level 5: growth control rate is above 85%). Further, the “weeding effect … Amaranthus retroflexus” value with Amaranthus retroflexus was 5 (Level 5: growth control rate is above 85%). The “weeding effect … Digitaria sanguinalis” value in the series on Digitaria sanguinalis was 5 (Level 5: growth control rate is above 85%). Further, in the series with Echinochloa crusgali, the “weeding effect … Echinochloa crusgali” value was 5 (Level 5: growth control rate is above 85%). Also, the “weeding effect … Setaria viridis” value in the series on Setaria viridis is recorded as 5 (Level 5: growth control rate is above 85%). Moreover, in series [1], the “activity to key weeds such as Digitaria sanguinalis, Leptochloa chinensis compared with the corresponding racemate or S configuration” value is on record as “better activity”. Further, in the series on rice and other crops, the “safety to rice and other crops compared with the corresponding racemate or S configuration” value is “higher safety”.
`Cc1nnc(NC(=O)c2ccc(C(F)(F)F)c([S@+]([O-])CC3COC3)c2F)o1` [Compound 80]: the “weeding effect … Amaranthus retroflexus” value in the series on Amaranthus retroflexus is given as 5 (Level 5: growth control rate is above 85%). Besides, the “weeding effect … Echinochloa crusgali” value in the series on Echinochloa crusgali is 5 (Level 5: growth control rate is above 85%). Besides, the “activity to key weeds such as Digitaria sanguinalis, Leptochloa chinensis compared with the corresponding racemate or S configuration” value in series [1] is on record as “better activity”. The “safety to rice and other crops compared with the corresponding racemate or S configuration” value in the series with rice and other crops was “higher safety”.
With `Cc1nnc(NC(=O)c2ccc(C(F)(F)F)c([S@+]([O-])Cc3cn(C)nc3C)c2F)o1` [Compound 184], the “weeding effect … Amaranthus retroflexus” value with Amaranthus retroflexus is on record as 5 (Level 5: growth control rate is above 85%). For the same compound, the “weeding effect … Echinochloa crusgali” value with Echinochloa crusgali was 5 (Level 5: growth control rate is above 85%). Also, the “activity to key weeds such as Digitaria sanguinalis, Leptochloa chinensis compared with the corresponding racemate or S configuration” value in series [1] was “better activity”. Also, the “safety to rice and other crops compared with the corresponding racemate or S configuration” value in the series on rice and other crops is “higher safety”.
On to `CC[S@@+]([O-])c1c(C(F)(F)F)ccc(C(=O)N(c2nnc(C)o2)C(C)OC(=O)OC)c1F` (stereo partly drawn) [Compound 248], for which the “weeding effect … Amaranthus retroflexus” value with Amaranthus retroflexus is on record as 5 (Level 5: growth control rate is above 85%). For the same compound, in the series with Echinochloa crusgali, the “weeding effect … Echinochloa crusgali” value was 5 (Level 5: growth control rate is above 85%). For the same compound, the “activity to key weeds such as Digitaria sanguinalis, Leptochloa chinensis compared with the corresponding racemate or S configuration” value in series [1] is “better activity”. Moreover, the “safety to rice and other crops compared with the corresponding racemate or S configuration” value in the series on rice and other crops is “higher safety”.
For `CCC[S@@+]([O-])c1c(C(F)F)ccc(C(=O)Nc2nnc(C)o2)c1SC` [Compound 865], in the series with Abutilon theophrasti, the “weeding effect … Abutilon theophrasti” value was 5 (Level 5: growth control rate is above 85%). Also, the “weeding effect … Amaranthus retroflexus” value with Amaranthus retroflexus was 5 (Level 5: growth control rate is above 85%). The “weeding effect … Digitaria sanguinalis” value in the series on Digitaria sanguinalis is 5 (Level 5: growth control rate is above 85%). Moreover, the “weeding effect … Echinochloa crusgali” value in the series on Echinochloa crusgali is 5 (Level 5: growth control rate is above 85%). In addition, the “weeding effect … Setaria viridis” value in the series on Setaria viridis is reported as 5 (Level 5: growth control rate is above 85%). Moreover, in series [1] (dose of 120, 48, 30, 24 g/ha), the “herbicidal activity and/or crop safety compared with the corresponding racemate or S configuration” value was “better herbicidal activity and/or crop safety”.
